These results are taken from ChEMBL document CHEMBL1201862, “PubChem BioAssay data set” (2004).

Among the test systems are 786-0; A549; CAKI-1; DMS-273; HCT-116; HCT-15; IGROV-1; K562; NCI-H23; SF-539; SK-MEL-5; SN12C; SNB-19; UACC-257; HOP-92.
Holding throughout (experiment): NCI anticancer screen, dose series, 48 h

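Where inhibition never reached the appropriate level, the endpoint shown equals the highest concentration tested. Otherwise, values were interpolated linearly from a five-concentration, 48-hour dose response in 96-well plates. The concentration for 50% growth inhibition is given as GI50.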 Active and inactive are the calls of the source. Cut-off read from the data, not from the text of the source: active = GI50 up to about 1.1 µM and inactive = higher. Bounds are passed on as bounds.

In the case of `COC(=O)c1c(C)oc2ccc(OC(C)=O)cc12`, the GI50 in the assay on 786-0 was > 100 µM (inactive); in the assay with A549 it was > 100 µM (inactive); in the assay with CAKI-1, > 100 µM (inactive); with DMS-273 it was > 100 µM (inactive); in the assay on HCT-116, > 100 µM (inactive); in the assay on HCT-15 it was over 100 µM. The GI50 with IGROV-1, in the assay with K562, with NCI-H23, in the assay on SF-539, with SK-MEL-5 and in the assay on SN12C was > 100 µM (inactive) in each case. Further, the GI50 with SNB-19 and in the assay on UACC-257 was > 100 µM (inactive) each time.
Regarding `S=C1OC2C3C4CC5C3C(O1)C1C5C4C21` (stereo not drawn), the GI50 with 786-0 is > 100 µM (inactive); in the assay on A549 it was > 100 µM (inactive); in the assay with CAKI-1, > 100 µM (inactive); with DMS-273, 89.1 µM (inactive); with HCT-116, 45.2 µM (inactive); with HCT-15, over 100 µM. The GI50 in the assay on HOP-92, in the assay on IGROV-1, with SF-539, in the assay on SK-MEL-5, with SN12C and in the assay with SNB-19 was > 100 µM (inactive) each time. Besides, the GI50 in the assay on UACC-257 is > 100 µM (inactive).
Regarding `Cc1cc(NS(=O)(=O)c2ccc(Nc3c4ccccc4nc4c(C(=O)Nc5ccc(S(=O)(=O)N=C(N)N)cc5)ccc(Cl)c34)cc2)no1`, the GI50 with 786-0 is 50.4 µM (inactive); in the assay with A549, > 100 µM (inactive); in the assay with CAKI-1 it was 54.2 µM (inactive); with DMS-273, 40.6 µM (inactive); in the assay on HCT-116, 53.8 µM (inactive); in the assay on K562, 22.1 µM (inactive). For the same compound, the GI50 with NCI-H23 was 29.9 µM (inactive); in the assay on SF-539, 18.5 µM (inactive); with SK-MEL-5, > 100 µM (inactive); in the assay with SN12C it was 31.2 µM (inactive); with SNB-19, 31.7 µM (inactive); in the assay with UACC-257, > 100 µM (inactive).
With `CCn1cnc2c(=S)nc(N)[nH]c21`, the GI50 was > 100 µM (inactive) in the assay on 786-0; > 100 µM (inactive) with A549; > 100 µM (inactive) in the assay with DMS-273; > 100 µM (inactive) in the assay with HCT-116; over 100 µM in the assay on HCT-15; > 100 µM (inactive) in the assay with IGROV-1. Moreover, the GI50 in the assay with K562, with NCI-H23, in the assay on SF-539, in the assay on SN12C, in the assay with SNB-19 and in the assay on UACC-257 was > 100 µM (inactive) in each case.
Consider `CCn1c(CSc2nc(-c3ccccc3)c(-c3ccccc3)[nH]2)n[nH]c1=S`, for which the GI50 was > 100 µM (inactive) with 786-0; > 100 µM (inactive) in the assay on A549; > 100 µM (inactive) in the assay with DMS-273; > 100 µM (inactive) in the assay on HCT-116; over 100 µM in the assay on HCT-15; > 100 µM (inactive) in the assay on HOP-92. The GI50 in the assay with IGROV-1, in the assay on NCI-H23, in the assay with SF-539, in the assay on SK-MEL-5, in the assay with SN12C and in the assay with SNB-19 was > 100 µM (inactive) in each case. Moreover, the GI50 with UACC-257 is > 100 µM (inactive).
On to `N#Cc1c(-c2ccco2)cc(-c2ccc(N)cc2)[nH]c1=O`, for which the GI50 is > 100 µM (inactive) in the assay on 786-0; > 100 µM (inactive) with A549; > 100 µM (inactive) in the assay on DMS-273; > 100 µM (inactive) in the assay with HCT-116; over 100 µM with HCT-15; > 100 µM (inactive) with HOP-92. In addition, the GI50 in the assay with IGROV-1, with K562, with NCI-H23, with SF-539, in the assay on SK-MEL-5 and in the assay on SN12C was > 100 µM (inactive) in each case. The GI50 with SNB-19 and with UACC-257 was > 100 µM (inactive) in each case.
